Where a name gives a salt, the structure may show the parent alone. Marks after values point to notes of the source that are not given here.
Experiments:
[1] = test system: acute lung injury in mice induced by oleic acid; assay: acute lung injury test in mouse (oleic acid-induced, histological grading of lung pathology); format: in vivo, KM mice; details: for protective effect against acute lung injury in mice induced by oleic acid: compared with the model control group (P<0.05 or P<0.01), 40 mg/kg free base i.v.; for Overall lung pathology score: group sum, weighted (alveolar wall thickening x 1, inflammatory cell infiltration x 1, lung tissue necrosis x 3), 40 mg/kg free base i.v. once a day for 4 times, model control 81, normal control 21; for Alveolar wall thickening Level 0 / Inflammatory cell infiltration Level 0 / Lung tissue necrosis Level 0: number of mice (11 per group) at score 0 (No pathological change); for Alveolar wall thickening Level 0 / Inflammatory cell infiltration Level 0 / Lung tissue necrosis Level 0 / Alveolar wall thickening Level 1 / Inflammatory cell infiltration Level 1 / Lung tissue necrosis Level 1 / Alveolar wall thickening Level 2 / Inflammatory cell infiltration Level 2 / Lung tissue necrosis Level 2 / Alveolar wall thickening Level 3 / Inflammatory cell infiltration Level 3 / Lung tissue necrosis Level 3 / Alveolar wall thickening Level 4 / Inflammatory cell infiltration Level 4 / Lung tissue necrosis Level 4: 40 mg/kg in terms of free base, intravenously once a day for 4 times, oleic acid 300 mg/kg i.v.; for Alveolar wall thickening Level 1 / Inflammatory cell infiltration Level 1 / Lung tissue necrosis Level 1: number of mice (11 per group) at score 1 (Occasional); for Alveolar wall thickening Level 2 / Inflammatory cell infiltration Level 2 / Lung tissue necrosis Level 2: number of mice (11 per group) at score 2 (Mild); for Alveolar wall thickening Level 3 / Inflammatory cell infiltration Level 3 / Lung tissue necrosis Level 3: number of mice (11 per group) at score 3 (Moderate); for Alveolar wall thickening Level 4 / Inflammatory cell infiltration Level 4 / Lung tissue necrosis Level 4: number of mice (11 per group) at score 4 (Severe)
Procedure: KM mice, weighing 18-22g, with all 66 being males, were used and randomly grouped into a normal control group, a model control group, a Formula I compound group (40 mg/kg, in terms of free base), a Formula V compound group (40 mg/kg, in terms of free base), a Comparative Example group (40 mg/kg, in terms of free base), and an ambroxol hydrochloride group (40 mg/kg, in terms of free base), 11 animals in each group, and each group was administered intravenously (dissolved in normal saline by adjusting pH or directly dissolved in normal saline) once a day for 4 times, while the model control group and the normal control group were given an equivalent amount of normal saline. 30 minutes after the last administration, except for the normal control group, all other mice were administered 300 mg/kg oleic acid intravenously (prepared into the desired concentration with sterile saline containing 0.1% […] immediately before use), and the vehicle control group was given an equivalent volume of 0.1% BSA saline. The mice were sacrificed 4 hours after the last administration, and the right lobes of the lungs were removed and fixed in a 10% formaldehyde solution. After dehydration, embedding in paraffin, dissection, and staining with HE, they were observed under a microscope for pathological changes of the lung tissues. Here, the medicament used for the Comparative Example group was the 4-[(2-amino-3,5-dibromobenzyl)amino]adamantan-1-ol hydrochloride (racemic) prepared in Comparative Example 1. Table 1. Criteria for histological grading of lung injury
The above indicators are multiplied by different weighting numbers depending on the significance of the pathology (alveolar wall thickening × 1, inflammatory cell infiltration × 1, lung tissue necrosis × 3), and finally added up to obtain an overall lung pathology score. Table 2. Test results of lung pathologies of each group

[2] = test system: ammonia-induced coughing response in mice; assay: cough response of mice induced by ammonia water; format: in vivo, KM mice; details: for reduction of the number of coughs: compared with the model control group (P<0.05 or P<0.01), 15 mg/kg free base i.v.; for Number of coughs (times): within 3 minutes after concentrated ammonia, 15 mg/kg in terms of free base i.v., 30 minutes after administration, x ± s, n=10, model control 41.7±8.76
Procedure: 50 KM mice, weighing 18-22g, of both sexes were used and randomly divided into 5 groups, a model control group, a Formula I compound group (15 mg/kg, in terms of free base), a Formula V compound group (15 mg/kg, in terms of free base), a Comparative Example group (15 mg/kg, in terms of free base), and an ambroxol hydrochloride group (15 mg/kg, in terms of free base), 10 animals in each group, and were administered intravenously (dissolved in normal saline by adjusting pH or directly dissolved in normal saline). 30 minutes after the administration, the mice were put in an inverted beaker with a volume of 500ml and a cotton ball inside. Timing was started once 0.2ml of concentrated ammonia/mouse was added onto the cotton ball. The number of coughs of each animal within 3 minutes was observed and recorded. Here, the medicament used for the Comparative Example group was the 4-[(2-amino-3,5-dibromobenzyl)amino]adamantan-1-ol hydrochloride (racemic) prepared in Comparative Example 1. Table 3. Effect on ammonia-induced coughing response in mice (x ± s, n=10)

[3] = test system: expectoration amount by rat capillary tube expectoration; assay: rat capillary sputum excretion test; format: in vivo, SD rats; details: length of liquid in capillary tube within 90 minutes, 15 mg/kg in terms of free base via tail vein, 30 minutes after administration, n=10, vehicle control 22.7±4.41
Procedure: 180-220g SD rats of both sexes were used and divided into random groups, with 10 rats in each group, namely a vehicle control group, a Formula I compound group (15 mg/kg, in terms of free base), a Formula V compound group (15 mg/kg, in terms of free base), a Comparative Example group (15 mg/kg, in terms of free base) and ambroxol hydrochloride (15 mg/kg, in terms of free base). The rats were fasted and restrained from water for 12 hours before testing the amount of sputum excretion, and administered the respective medicaments via the tail vein (dissolved in normal saline by adjusting pH or directly dissolved in normal saline). 30 minutes after the administration, they were anesthetized by intraperitoneally injecting 1g/kg of a urethane solution in saline, fixed in supine position, and the trachea was separated after cutting through neck skin. A small hole was pierced by using a syringe needle between the two cartilage rings on the lower edge of the thyroid cartilage, and a capillary tube (with an inner diameter of 0.8mm, and a length of 10cm) was inserted centripetally into the trachea. Sputum was collected while adjusting the angle between the capillary tube and the trachea, and the total number of the length of liquids in the capillary tube (mm) was used to evaluate the expectoration effect. The amount of expectoration of the rats within 90 minutes was recorded. Here, the medicament used for the Comparative Example group was the 4-[(2-amino-3,5-dibromobenzyl)amino]adamantan-1-ol hydrochloride (racemic) prepared in Comparative Example 1. Table 4. Results of the effect on the expectoration amount by rat capillary tube expectoration

[4] = test system: tracheal phenol red secretion in mice; assay: phenol red expectoration test in mice; format: in vivo; details: colorimetric measurement at 546nm; 30 mg/kg in terms of free base via tail vein 2 times in a row; x ± s, n=12; control 0.095±0.022
Procedure: Experimental method: 60 mice of both sexes were used and randomly divided into a control (normal saline) group, a Formula I compound group (30 mg/kg, in terms of free base), a Formula V compound group (30 mg/kg, in terms of free base), a Comparative Example group (30 mg/kg, in terms of free base) and ambroxol hydrochloride (30 mg/kg, in terms of free base), 12 rats in each group; the respective medicaments were administered via the tail vein (dissolved in normal saline by adjusting pH or directly dissolved in normal saline) 2 times in a row. 15 minutes after the last administration to the mice, a 5% phenol red solution in normal saline (0.5g/kg) was subcutaneously injected. After 30 minutes, the mice were sacrificed and a section of the trachea was cut from below the thyroid cartilage to the trachea branch. The section was placed in a test tube containing 1 mL of normal saline, shaken and soaked for 30 minutes, and then centrifuged for 10 minutes (3000 r/min). The supernatant was transferred to another test tube, 0.1 mL of 1M NaOH solution was added, and shaken uniformly for a colorimetric measurement at 546nm. The effects of each group on the tracheal phenol red secretion in mice were statistically compared, and the experimental results obtained are shown in Table 5 below. Here, the medicament used for the Comparative Example group was the 4-[(2-amino-3,5-dibromobenzyl)amino]adamantan-1-ol hydrochloride (racemic) prepared in Comparative Example 1. Table 5. Effects on tracheal phenol red secretion in mice (x ± s)

## Cl.Nc1c(Br)cc(Br)cc1CNC1C2CC3CC1CC(O)(C3)C2 (racemic) [Compound of Comparative Example, 4-[(2-amino-3,5-dibromobenzyl)amino]adamantan-1-ol hydrochloride (racemic)]
[1]
  protective effect against acute lung injury in mice induced by oleic acid: definite protective effect
  Overall lung pathology score: 44*
  Alveolar wall thickening Level 0: 1
  Inflammatory cell infiltration Level 0: 1
  Lung tissue necrosis Level 0: 8
  Alveolar wall thickening Level 1: 2
  Inflammatory cell infiltration Level 1: 6
  Lung tissue necrosis Level 1: 2
  Alveolar wall thickening Level 2: 8
  Inflammatory cell infiltration Level 2: 4
  Lung tissue necrosis Level 2: 1
  Alveolar wall thickening Level 3: 0
  Inflammatory cell infiltration Level 3: 0
  Lung tissue necrosis Level 3: 0
  Alveolar wall thickening Level 4: 0
  Inflammatory cell infiltration Level 4: 0
  Lung tissue necrosis Level 4: 0
[2]
  reduction of the number of coughs: significantly reduce the number of coughs
  Number of coughs (times): 25.7±6.40 times
[3]
  Expectoration amount in 90min (mm): 39.9±5.43 mm
[4]
  Phenol red secretion (OD number): 0.223±0.058 OD number

## Nc1c(Br)cc(Br)cc1CN[C@H]1CC[C@H](O)CC1 [Ambroxol hydrochloride]
[1]
  Overall lung pathology score: 54
  Alveolar wall thickening Level 0: 2
  Inflammatory cell infiltration Level 0: 0
  Lung tissue necrosis Level 0: 6
  Alveolar wall thickening Level 1: 4
  Inflammatory cell infiltration Level 1: 4
  Lung tissue necrosis Level 1: 4
  Alveolar wall thickening Level 2: 4
  Inflammatory cell infiltration Level 2: 7
  Lung tissue necrosis Level 2: 0
  Alveolar wall thickening Level 3: 1
  Inflammatory cell infiltration Level 3: 0
  Lung tissue necrosis Level 3: 1
  Alveolar wall thickening Level 4: 0
  Inflammatory cell infiltration Level 4: 0
  Lung tissue necrosis Level 4: 0
[2]
  reduction of the number of coughs: significantly reduce the number of coughs
  Number of coughs (times): 32.7±8.55 times
[3]
  Expectoration amount in 90min (mm): 30.1±4.95 mm
[4]
  Phenol red secretion (OD number): 0.135±0.023 OD number

## Nc1c(Br)cc(Br)cc1CN[C@@H]1[C@@H]2C[C@@H]3C[C@H]1C[C@@](O)(C3)C2 [Compound of Formula I, trans-4-[(2-amino-3,5-dibromobenzyl)amino]adamantan-1-ol]
[1]
  protective effect against acute lung injury in mice induced by oleic acid: definite protective effect
  Alveolar wall thickening Level 0: 1
  Inflammatory cell infiltration Level 0: 3
  Lung tissue necrosis Level 0: 11
  Alveolar wall thickening Level 1: 7
  Inflammatory cell infiltration Level 1: 7
  Lung tissue necrosis Level 1: 0
  Alveolar wall thickening Level 2: 3
  Inflammatory cell infiltration Level 2: 1
  Lung tissue necrosis Level 2: 0
  Alveolar wall thickening Level 3: 1
  Inflammatory cell infiltration Level 3: 0
  Lung tissue necrosis Level 3: 0
  Alveolar wall thickening Level 4: 0
  Inflammatory cell infiltration Level 4: 0
  Lung tissue necrosis Level 4: 0
[1]; 40 mg/kg
  Overall lung pathology score: 23^**▲
[2]
  reduction of the number of coughs: significantly reduce the number of coughs
[2]; 15 mg/kg
  Number of coughs (times): 19.2±5.98 times
[3]; 15 mg/kg
  Expectoration amount in 90min (mm): 45.9±6.79 mm
[4]
  Phenol red secretion (OD number): 0.279±0.063 OD number
